This is an account of results in patent US4788181A, “5-substituted-2',3'-dideoxycytidine compounds with anti-HTLV-III activity” (priority 1986, dated 1988).

Entries after “also recorded” stand apart in the source; their conditions may differ. Read-outs that look alike come from different tables or passages of the source.

Series [1] has as its system HTLV-III/LAV. As to conditions: cited from earlier work.
Series [2] in a line: Cytotoxicity to ATH8 cells cultured with the nucleoside (trypan blue viable cell count). Format: cell-based. The conditions noted are these: human. Here is the method: (§1) ^b The percentage of cytotoxicity was determined by the following
(§2) 100 × [1 - (number of viable cells cultured in the presence of the
(§3) nucleoside)/(number of viable cells cultured alone)].
(§4) HTLV-III/LAV cytopathic effect assay was performed using ATH8 cells as previously described.* Briefly, 2×10^5 ATH8 cells were exposed to HTLV-IIIB virus (2,000 virus particles/cell) for 45 min after treatment with polybrene, resuspended in 2 ml of culture medium containing interleukin 2 in the presence or absence of various concentrations of compounds, and incubated in culture tubes at 37° C. in 5% CO2 /95% air humidifedd atmosphere. Control cells were treated similarly but were not exposed to the virus. At various time points on days 5 to 7 of culture, the total viable cells were counted in a hemocytometer by the trypan blue dye exclusion method.

Series [3] can be described thus: Penetration of the blood-brain barrier / entry into the central nervous system.
The next series deals with T4^+ lymphocytes. As to conditions: 0.5 and 5.0 micromoles; cited from earlier work.
In series [4] the test system is HTLV-III/LAV. As to conditions: in vitro, cited from earlier work.
The conditions of series [5]: water or body fluids; listed as ddA; cited from earlier work.
Series [6] relates to HTLV-III/LAV. As to the kind of experiment: HTLV-III/LAV cytopathic effect assay using ATH8 cells (protective effect). Format: cell-based, HTLV-IIIB. As to conditions: for protection (in words): 200 micromolar; for doses required for protection (in words): relative to other dideoxy nucleosides / ddC 1; for protective / anti-HTLV-III activity (in words): in vitro. Here is the method:
^a The percentage of protective effect of a nucleoside was determined
by the following formula:
100 × [(number of viable cells exposed to HTLVIII and cultured in
the presence of the nucleoside) - (number of viable cells exposed to
HTLVII I cultured in the absence of the nucleoside)]/[(number of viable
cells cultured alone) - (number of viable cells exposed to HTLVIII in the
absence of the nucleoside)].
as §4

Another series relates to ATH8 cells. Put plainly: Cytotoxicity to ATH8 cells cultured with the nucleoside (trypan blue viable cell count). Format: cell-based. The conditions noted are these: in vitro. The method, then:
as §1, §2, §3, §4

The nature of the next series: Basicity and protonation. Format: physicochemical. The conditions noted are these: relative to 2',3'-dideoxycytidine.
The next series concerns mouse fibroblasts. As to conditions: Cancer Research, 1975, 35, 1547-1554; cited from earlier work.
A further series has as its system reverse transcriptase. The conditions noted are these: cited from earlier work.
The mark [7] stands for this setting: 5 μM, ATH8 cells, read-out: Cytotoxicity (%).
The mark [8] stands for this setting: 10 μM, ATH8 cells, read-out: Cytotoxicity (%).
[9] abbreviates: 50 μM, ATH8 cells, read-out: Cytotoxicity (%).
[10] abbreviates: 200 μM, ATH8 cells, read-out: Cytotoxicity (%).
The mark [11] stands for this setting: 0.5 μM, ATH8 cells, read-out: Cytotoxicity (%).

As to `Cc1cn([C@H]2C[C@H](N=[N+]=[N-])[C@@H](CO)O2)c(=O)[nH]c1=O` [AZT, 3-azido-3'-deoxythymidine], the “activity in test systems (in words)” value in the series on HTLV-III/LAV [1] is reported as “a compound with activity in test systems”.
In [2] (ath8 cells), `Nc1ccn([C@H]2CC[C@@H](CO)O2)c(=O)n1` [Compound 1, 2',3'-dideoxycytidine] came in with a cytotoxicity at 0.05 µM of 0%, a cytotoxicity at 0.5 µM of 0%, a cytotoxicity at 5 µM of 0% and a cytotoxicity at 50 µM of 30%. The “penetration of the blood-brain barrier / entry into the central nervous system” value in series [3] is “enter the central nervous system, very poorly”. The “cytotoxicity (in words)” value in the series with T4^+ lymphocytes was “non-cytotoxic”. In addition, the “protection against the cytopathic effects of HTLV-III/LAV (in words)” value (from here on “protection … of HTLV-III/LAV (in words)”) in the series on HTLV-III/LAV [4] is “most potent member of the group on the basis of molarity”. Further, the “protection … of HTLV-III/LAV (in words)” value in the series on HTLV-III/LAV [4] (listed as ddC) is recorded as “potent protective agent; also recorded: very effective”.
Turning to `Nc1ncnc2c1ncn2[C@H]1CC[C@@H](CO)O1` [Compound 2], in [2] (ATH8 cells), the cytotoxicity at 1 µM amounted to 0% and the cytotoxicity at 100 µM is 0%. The cytotoxicity at 5 µM in series [2] (setting [7]) was 6%. Further, in [2] (setting [8]), the cytotoxicity at 10 µM amounted to 0%. Also, the cytotoxicity at 50 µM in series [2] (setting [9]) was determined as 0%. In addition, in series [2] (setting [10]), the cytotoxicity at 200 µM was determined as 0%. Besides, the “protection … of HTLV-III/LAV (in words)” value in the series on HTLV-III/LAV [4] is listed as “very effective”. Also, the “solubility (in words)” value in [5] is on record as “relatively insoluble; also recorded: not very soluble in water or body fluids”.
What is called inhibition is how much of the control response was suppressed. `Cc1cn([C@H]2CC[C@@H](CO)O2)c(=O)[nH]c1=O` [Compound 3, dideoxythymidine]: the cytotoxicity at 10 µM in series [2] (setting [8]) is 8%. Also, the cytotoxicity at 50 µM in [2] (setting [9]) worked out at 8%. In series [2] (ATH8 cells), this molecule yielded a cytotoxicity at 100 µM of 13%. Besides, the cytotoxicity at 200 µM in series [2] (setting [10]) amounted to 6%. In [2] (500 μM, ATH8 cells), this molecule came in with a cytotoxicity at 500 µM of 30%. This molecule also had a cytotoxicity at 1000 µM in series [2] (1000 μM, ATH8 cells) of 40%. The cytotoxicity at 2000 µM in series [2] (2000 μM, ATH8 cells) stood at 53%. In the series with HTLV-III/LAV [6], the “protection (in words)” value is “considerable protection” and the “doses required for protection (in words)” value was “unusually high doses”. The same molecule yielded an inhibition at 10 µM in the series with HTLV-III/LAV [6] (Human immunodeficiency virus 1, ATH-8, 10 μM, ATH8 cells, days 5 to 7) of 3%.
Molecule `Nc1ncn([C@H]2CC[C@@H](CO)O2)c(=O)n1` [Compound 10, 2',3'-Dideoxy-5-azacytidine] displayed a cytotoxicity at 1 µM in [2] (ATH8 cells) of 13%. In addition, the cytotoxicity at 10 µM in series [2] (setting [8]) is 19%. Also, the cytotoxicity at 50 µM in [2] (setting [9]) is 62%. Moreover, in the series with ATH8 cells, the “cytotoxicity (in words)” value is “clearly more cytotoxic than ddC”. In the series with HTLV-III/LAV [6] (10 micromolar), the “anti-HTLV-III activity (in words)” value was “significant anti-HTLV-III activity”.
On to `Cc1cn([C@H]2CC[C@@H](CO)O2)c(=O)nc1N` [Compound 15, 2',3'-Dideoxy-5-methylcytidine], for which the MCC in [2] (ath8 cells, read-out: concentration at which toxicity began to show) is 100 µM. In series [2] (ATH8 cells), this molecule came in with a cytotoxicity at 2 µM of 23% and a cytotoxicity at 100 µM of 44%. Moreover, the cytotoxicity at 10 µM in series [2] (setting [8]) came out at 27%. Further, the “protective / anti-HTLV-III activity (in words)” value in the series with HTLV-III/LAV [6] was “devoid of protective effects”.
On to `Cc1cn([C@H]2C[C@H](O)[C@@H](CO)O2)c(=O)nc1N` [Compound 16, 5-methyl-2'-deoxycytidine], for which the “cytotoxicity (in words)” value in the series with ATH8 cells is reported as “neither protective nor cytotoxic”. Moreover, the “protective / anti-HTLV-III activity (in words)” value with HTLV-III/LAV [6] is listed as “neither protective nor cytotoxic”.
`Nc1nc(=O)n([C@H]2CC[C@@H](CO)O2)cc1Br` [Compound 17, 2',3'-Dideoxy-5-bromocytidine] registered a cytotoxicity at 1 µM in series [2] (ATH8 cells) of 14%. Besides, the cytotoxicity at 10 µM in series [2] (setting [8]) is 14%. Further, in series [2] (30 μM, ATH8 cells), the cytotoxicity at 30 µM is 2%. For the same molecule, in series [2] (setting [10]), the cytotoxicity at 200 µM was found to be 0%. The “cytotoxicity (in words)” value with ATH8 cells is “neither protective nor cytotoxic”. Further, in the series with HTLV-III/LAV [6], the “protective / anti-HTLV-III activity (in words)” value is given as “neither protective nor cytotoxic”.
On to `Nc1nc(=O)n([C@H]2CC[C@@H](CO)O2)cc1F` [Compound 22, 2',3'-Dideoxy-5-fluorocytidine], for which, in series [2] (0.05 μM, ATH8 cells, read-out: Cytotoxicity (%)), the cytotoxicity at 0.05 µM amounted to 5%. In addition, the cytotoxicity at 0.5 µM in series [2] (setting [11]) worked out at 0%. The cytotoxicity at 5 µM in series [2] (setting [7]) stood at 0%. Further, the cytotoxicity at 50 µM in [2] (setting [9]) is 9%. In [3], the “penetration of the blood-brain barrier / entry into the central nervous system” value is “penetrate the blood-brain barrier”. Besides, in “Basicity and protonation”, the basicity result is reported as “less basic than the parent compound” and the protonation entry was “less protonated than the parent compound”. This molecule also gave an inhibition at 0.05 µM with HTLV-III/LAV [6] (Human immunodeficiency virus 1, ATH-8, 0.05 μM, ATH8 cells, days 5 to 7) of 5%. In the series with HTLV-III/LAV [6], the “protective / anti-HTLV-III activity (in words)” value was “as protective of HTLV-III infected cells as the lead compound 1”.
For the molecule `Nc1ccn([C@H]2CC[C@@H](COP(=O)(O)O)O2)c(=O)n1` [Compound 24], in series [2] (setting [11]), the cytotoxicity at 0.5 µM was found to be 0%. The same molecule showed a cytotoxicity at 2 µM in [2] (ATH8 cells) of 7%. Moreover, the cytotoxicity at 10 µM in series [2] (setting [8]) was 0%. The “doses required for protection (in words)” value in the series with HTLV-III/LAV [6] is listed as “significant protection was beginning to be observed at doses approximately ten times higher than were required for activity with ddC 1”.
On to `Nc1ncnc2c1ncn2[C@H]1CC[C@@H](COP(=O)(O)O)O1` [Compound 25, 2',3'-dideoxyadenosine-5'-phosphate], for which, in [2] (ATH8 cells), the cytotoxicity at 1 µM is 2% and the cytotoxicity at 100 µM is 0%. In addition, the cytotoxicity at 5 µM in series [2] (setting [7]) was determined as 10%. Moreover, in series [2] (setting [8]), the cytotoxicity at 10 µM was 6%. Moreover, in [2] (setting [9]), the cytotoxicity at 50 µM is 4%. For the same molecule, the cytotoxicity at 200 µM in series [2] (setting [10]) was 5%. Besides, in the series with mouse fibroblasts, the “cytotoxicity in mouse fibroblasts (in words)” value is given as “cytotoxic consequences” and the “entry into mouse fibroblasts” value was “appeared to enter mouse fibroblasts intact”. The molecule further gave an inhibition at 1 µM in the series on HTLV-III/LAV [6] (Human immunodeficiency virus 1, ATH-8, 1 μM, ATH8 cells, days 5 to 7) of 25%. Further, the “protective / anti-HTLV-III activity (in words)” value in the series on HTLV-III/LAV [6] is reported as “just as active as the nucleoside 2, over a wide concentration range”. In addition, in the series with HTLV-III/LAV [6] (low concentrations), the “potency of ddAMP relative to ddA (in words)” value is listed as “not more potent at low concentrations”.
`Cc1cn([C@H]2CC[C@@H](COP(=O)(O)O)O2)c(=O)[nH]c1=O` [Compound 26]: in series [2] (ath8 cells), the cytotoxicity at 10 µM was 9%, the cytotoxicity at 50 µM came out at 9% and the cytotoxicity at 200 µM came out at 10%. In the series with HTLV-III/LAV [6], the “protection (in words)” value is “essentially inactive”.
Consider `O=C(O)P(=O)(O)O` [foscarnet], for which the “inhibition of reverse transcriptase (in words)” value (from here on “inhibition … (in words)”) in the series with reverse transcriptase is “inhibit this enzyme”.
As to `NC(=O)c1ncn([C@@H]2O[C@H](CO)[C@@H](O)[C@H]2O)n1` [ribavirin], the “inhibition … (in words)” value in the series with reverse transcriptase is recorded as “inhibit this enzyme”.
Take `Cc1ccc(C(=O)Nc2ccc(S(=O)(=O)O)c3cc(S(=O)(=O)O)cc(S(=O)(=O)O)c23)cc1NC(=O)c1cccc(NC(=O)Nc2cccc(C(=O)Nc3cc(C(=O)Nc4ccc(S(=O)(=O)O)c5cc(S(=O)(=O)O)cc(S(=O)(=O)O)c45)ccc3C)c2)c1` [suramin]: the “inhibition … (in words)” value with reverse transcriptase is recorded as “inhibit this enzyme”.
